# Measurements as given in the NIST ThermoML archive (doi:10.1016/j.jct.2013.08.021).
# ± gives the expanded uncertainty stated by the source.
# Columns and labels:
# [1] = 101 kPa, Liquid; for speed of sound: Sing-around technique in a fixed-path interferometer; for mass density: Vibrating tube method
# [2] = refractive index (Na D-line) (dimensionless); conditions: 101.33 kPa, Liquid, Standard Abbe refractometry
# [3] = xn = mol fraction of the nth substance listed; conditions: 101 kPa, Liquid, x1 = 1; for speed of sound: Sing-around technique in a fixed-path interferometer; for mass density: Vibrating tube method
# [4] = refractive index (Na D-line) (dimensionless); xn = mol fraction of the nth substance listed; conditions: 101 kPa, Liquid, Standard Abbe refractometry, x1 = 1
Structure (SMILES),speed of sound ([1]; 298.15 K),mass density ([1]; 298.15 K),speed of sound ([1]; 303.15 K),mass density ([1]; 303.15 K),speed of sound ([1]; 308.15 K),mass density ([1]; 308.15 K),refractive index ([2]; 298.15 K),refractive index ([2]; 303.15 K),refractive index ([2]; 308.15 K),speed of sound ([3]; 298.15 K),mass density ([3]; 298.15 K),speed of sound ([3]; 303.15 K),mass density ([3]; 303.15 K),speed of sound ([3]; 308.15 K),mass density ([3]; 308.15 K),refractive index ([4]; 298.15 K),refractive index ([4]; 303.15 K),refractive index ([4]; 308.15 K)
CCO [ethanol],1143.9 ± 1.1 m/s,785.48 ± 0.15 kg/m3,1128 ± 1.1 m/s,781.16 ± 0.15 kg/m3,1111.8 ± 1.1 m/s,776.81 ± 0.15 kg/m3,1.35932 ± 0.00031,1.35728 ± 0.00031,1.35519 ± 0.00031,–,–,–,–,–,–,–,–,–
CCO [ethanol] + CCC[N+]1(C)CCCC1.O=S(=O)([N-]S(=O)(=O)C(F)(F)F)C(F)(F)F,–,–,–,–,–,–,–,–,–,1143.9 ± 1.1 m/s,785.48 ± 0.15 kg/m3,1128 ± 1.1 m/s,781.16 ± 0.15 kg/m3,1111.8 ± 1.1 m/s,776.81 ± 0.15 kg/m3,1.35932 ± 0.00031,1.35728 ± 0.00031,1.35519 ± 0.00031
CO [methanol],1102.7 ± 1.1 m/s,786.66 ± 0.15 kg/m3,1086.3 ± 1.1 m/s,781.95 ± 0.15 kg/m3,1070.1 ± 1.1 m/s,777.2 ± 0.15 kg/m3,1.3265 ± 0.00031,1.32452 ± 0.00031,1.32254 ± 0.00031,–,–,–,–,–,–,–,–,–
CO [methanol] + CCC[N+]1(C)CCCC1.O=S(=O)([N-]S(=O)(=O)C(F)(F)F)C(F)(F)F,–,–,–,–,–,–,–,–,–,1102.7 ± 1.1 m/s,786.66 ± 0.15 kg/m3,1086.3 ± 1.1 m/s,781.95 ± 0.15 kg/m3,1070.1 ± 1.1 m/s,777.2 ± 0.15 kg/m3,1.3265 ± 0.00031,1.32452 ± 0.00031,1.32254 ± 0.00031
CCCO [propan-1-ol],1206.6 ± 1.2 m/s,799.87 ± 0.14 kg/m3,1189.5 ± 1.2 m/s,795.94 ± 0.14 kg/m3,1172.4 ± 1.2 m/s,791.78 ± 0.15 kg/m3,1.38309 ± 0.00031,1.38106 ± 0.00031,1.37894 ± 0.00031,–,–,–,–,–,–,–,–,–
CCCO [propan-1-ol] + CCC[N+]1(C)CCCC1.O=S(=O)([N-]S(=O)(=O)C(F)(F)F)C(F)(F)F,–,–,–,–,–,–,–,–,–,1206.6 ± 1.2 m/s,799.87 ± 0.14 kg/m3,1189.5 ± 1.2 m/s,795.94 ± 0.14 kg/m3,1172.4 ± 1.2 m/s,791.78 ± 0.15 kg/m3,1.38309 ± 0.00031,1.38106 ± 0.00031,1.37894 ± 0.00031
